For 23 compounds, EC50 and ΔTm results are on record in US12162863B2, “Modulators of stimulator of interferon genes (STING)” (RYVU THERAPEUTICS S.A., priority 2018, dated 2024).

In general, EC50 refers to the concentration needed to bring the measured effect to its halfway point. In general, ΔTm refers to the change in melting temperature against a reference sample.

The test system of assay [1] is interferon regulatory factor (IRF) pathway in THP-1 dual cells. Kind of assay: THP-1 Dual Reporter Assay, IRF pathway (luciferase reporter). It counts as cell-based. As to conditions: Homo sapiens, THP1-Dual, 18 h of stimulation, luminescence. The protocol: (§1) THP-1 Dual Reporter Assay
(§2) Compounds of the present invention were tested for their activity using THP-1 dual cells (Invivogen, cat no. thpd-nfis) allowing for simultaneous study of NF-κB pathway and the interferon regulatory factor (IRF) pathway. THP-1 dual cells contain luciferase reporter gene under the control of an ISG54 (interferon-stimulated gene) minimal promoter in conjunction with five interferon-stimulated response elements and a secreted embryonic alkaline phosphatase reporter gene under the control an IFN (interferon)-β minimal promoter fused to five copies of the NF-κB consensus transcriptional response element with three copies of the c-Rel binding site. Following 18 h of stimulation with STING agonist, medium was collected and transferred onto fresh cell culture plate. To verify activity of the IRF pathway, luminescence activity was measured with standard laboratory plate reader immediately after addition 10 μl of the medium to 50 μl of luminescence reagent (Invivogen, cat. No. rep-qlc2). To verify activity of NF-κB pathway, 20 μl of the medium was mixed with 80 μl of a detection medium (Invivogen, cat. No. rep-qb2) and incubated for 2 hours at 37° C. in a humidified atmosphere containing 5% CO2. Next, absorbance at 630 nm was recorded using standard laboratory plate reader.

A further assay deals with human STING (Homo sapiens, UniProt Q86WV6). Kind of assay: Fluorescence Thermal Shift assay. The conditions noted are these: 50 μM compound; STING 0.1 mg/ml; 20 minutes preincubation; read-out: [hSTING] FTS, ΔTm [° C.] for 50 μM. It counts as binding. The protocol:
Fluorescence Thermal Shift Assay Compounds of the present invention were tested for binding to human STING in Fluorescence Thermal Shift assay. STING was preincubated with the compounds for 20 minutes in 50 mM Hepes, 150 mM NaCl, pH 7.5 in 16 μl volume, following by adding 4 μl of SyproOrange dye dilution (ThermoFisher, cat no. S-6651). Final STING concentration was 0.1 mg/ml. Thermal unfolding was performed in Real-Time PCR QuantStudio 6 Flex System (Applied Biosystems), from 25 to 99° C., with continuous ramp mode and ramp rate 0.033° C./s. The data were analyzed using Protein Thermal Shift Software (ThermoFisher). […] For example, ΔTm [° C.] of FTS assay for following examples are: […]

The subject of assay [2] is NF-κB pathway in THP-1 dual cells. Description: THP-1 Dual Reporter Assay, NF-κB pathway (SEAP reporter). It counts as cell-based. The conditions noted are these: Homo sapiens, THP1-Dual, 18 h of stimulation, absorbance at 630 nm, read-out: THP1 Dual EC50 (μM) NFkB. As to the method:
as §1, §2
Background: In a reporter assay the amount or activity of a reporter protein is the signal.

Chain of human STING (Q86WV6 whole entry H232R): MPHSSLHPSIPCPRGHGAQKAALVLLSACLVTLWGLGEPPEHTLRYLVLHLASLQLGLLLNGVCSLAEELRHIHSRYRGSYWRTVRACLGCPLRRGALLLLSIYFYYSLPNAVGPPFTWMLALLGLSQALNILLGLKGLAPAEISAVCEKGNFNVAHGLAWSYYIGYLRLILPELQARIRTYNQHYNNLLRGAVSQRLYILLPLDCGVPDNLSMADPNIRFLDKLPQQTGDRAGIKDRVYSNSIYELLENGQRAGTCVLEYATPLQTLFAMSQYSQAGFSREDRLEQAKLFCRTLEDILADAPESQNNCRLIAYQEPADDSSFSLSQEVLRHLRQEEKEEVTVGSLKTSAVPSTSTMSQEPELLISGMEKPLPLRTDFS

For the compound `O=c1c(CN(CCCc2ccncc2)Cc2ccncc2)coc2ccccc12` [Example 21, 3-({[(pyridin-4-yl)methyl][3-(pyridin-4-yl)propyl]amino}methyl)-4H-chromen-4-one], the EC50 in assay [1] is not above 10 µM; in assay [2] it was 10 to 20 µM. Also, the ΔTm at 50 µM at human STING is more than 2.5 °C.

With `O=c1c(CN(CCCn2ccnn2)Cc2ccncc2)coc2cc(Br)ccc12` [Example 22, 7-bromo-3-{[(pyridin-4-ylmethyl)[3-(1H1,2,3-triazol-1-yl)propyl]amino]methyl}-4H-chromen-4-one], the EC50 was 10 to 20 µM in assay [1] and not below 20 µM in assay [2]. Further, the ΔTm at 50 µM at human STING is less than 2.5 °C.

On to `O=c1c(CN(CCCn2ccnc2)Cc2ccncc2)coc2cc(-c3ccc(F)cc3)ccc12` [Example 23, 7-(4-fluorophenyl)-3-({[3-(1H-imidazol-1-yl)propyl](pyridin-4-ylmethyl)amino}methyl)-4H-chromen-4-one], for which the EC50 in assay [1] and in assay [2] was not below 20 µM throughout. Also, the ΔTm at 50 µM on human STING was more than 2.5 °C.

Consider `Cc1cc(CN(CCCn2ccnc2)Cc2coc3ccccc3c2=O)ccn1` [Example 25, 3-({[3-(1H-imidazol-1-yl)propyl][(2-methylpyridin-4-yl)methyl]amino}methyl)-4H-chromen-4-one], for which the EC50 in assay [1] was 10 to 20 µM; in assay [2], not below 20 µM. Besides, the ΔTm at 50 µM at human STING is less than 2.5 °C.

Consider `Cc1ccc2c(=O)c(CN(CCCn3ccnc3)Cc3ccnc(F)c3)coc2c1C` [Example 26, 3-({[(2-fluoropyridin-4-yl)methyl][3-(1H-imidazol-1-yl)propyl]amino}methyl)-7,8-dimethyl-4H-chromen-4-one], for which the EC50 in assay [1] and in assay [2] was not below 20 µM throughout. Moreover, the ΔTm at 50 µM on human STING was less than 2.5 °C.

As to `COc1cc(CN(CCCn2ccnc2)Cc2coc3cc(O)ccc3c2=O)ccn1` [Example 27, 7-hydroxy-3-({[3-(1H-imidazol-1-yl)propyl][(2-methoxypyridin-4-yl)methyl]amino}methyl)-4H-chromen-4-one], the EC50 in assay [1] was 10 to 20 µM; in assay [2], not below 20 µM. In addition, at human STING, the shift in melting temperature (ΔTm) at 50 µM was more than 2.5 °C.

For `O=c1c(CN(CCCc2cccnc2)Cc2ccncc2)coc2c1ccc1ccccc12` [Example 28, 3-({[3-(pyridin-3-yl)propyl](pyridin-4-ylmethyl)amino}methyl)-4H-benzo[h]chromen-4-one], the EC50 in assay [1] and in assay [2] was not above 10 µM in each case. The ΔTm at 50 µM on human STING is more than 2.5 °C.

In the case of `O=c1c(CN(CCCn2ccnc2)Cc2ccncc2)coc2ccc(F)cc12` [Example 29, 6-fluoro-3-({[3-(1H-imidazol-1-yl)propyl][(pyridin-4-yl)methyl]amino}methyl)-4H-chromen-4-one], the results for the EC50 in assay [1] and in assay [2] were not above 10 µM and 10 to 20 µM, respectively. The ΔTm at 50 µM on human STING was more than 2.5 °C.

On to `COc1cc(CN(CCCn2ccnc2)Cc2coc3c(ccc4ccccc43)c2=O)ccn1` [Example 30, 3-({[3-(1H-imidazol-1-yl)propyl][(2-methoxypyridin-4-yl)methyl]amino}methyl)-4H-benzo[h]chromen-4-one], for which the 50% effective concentration (EC50) in assay [1] and in assay [2] was not above 10 µM throughout. For the same compound, the ΔTm at 50 µM at human STING is more than 2.5 °C.

For the compound `Cn1cc(CN(CCCn2ccnc2)Cc2ccncc2)c(=O)c2ccccc21` [Example 31, 3-({[3-(1H-imidazol-1-yl)propyl][(pyridin-4-yl)methyl]amino}methyl)-1-methyl-1,4-dihydroquinolin-4-one], the EC50 in assay [1] and in assay [2] was not below 20 µM throughout. The ΔTm at 50 µM at human STING was more than 2.5 °C.

Turning to `COc1ccc(-c2ccc3c(=O)c(CN(CCCn4ccnc4)Cc4ccncc4)coc3c2)cc1` [Example 32, 3-({[3-(1H-imidazol-1-yl)propyl](pyridin-4-ylmethyl)amino}methyl)-7-(4-methoxyphenyl)-4H-chromen-4-one], the values for the EC50 in assay [1] and in assay [2] were 10 to 20 µM and not below 20 µM, respectively. Moreover, the ΔTm at 50 µM on human STING was more than 2.5 °C.

Take `O=c1c(CN(CCCn2ccnc2)Cc2ccncc2)coc2ccccc12` [Example 33, 3-({[3-(1H-imidazol-1-yl)propyl](pyridin-4-ylmethyl)amino}methyl)-4H-chromen-4-one]: the EC50 was 10 to 20 µM in assay [1] and not below 20 µM in assay [2]. In addition, at human STING, the ΔTm at 50 µM was less than 2.5 °C.

Take `COc1cc(CN(CCCn2ccnc2)Cc2coc3cc(N4CCN(C)CC4)ccc3c2=O)ccn1` [Example 34, 3-({[3-(1H-imidazol-1-yl)propyl][(2-methoxypyridin-4-yl)methyl]amino}methyl)-7-(4-methylpiperazin-1-yl)-4H-chromen-4-one]: the EC50 is not below 20 µM in assay [1] and 10 to 20 µM in assay [2]. In addition, on human STING, the ΔTm at 50 µM is less than 2.5 °C.

On to `Cc1oc2ccccc2c(=O)c1CN(CCCn1ccnc1)Cc1ccncc1` [Example 36, 3-({[3-(1H-imidazol-1-yl)propyl][(pyridin-4-yl)methyl]amino}methyl)-2-methyl-4H-chromen-4-one], for which the EC50 was not above 10 µM in assay [1] and 10 to 20 µM in assay [2]. At human STING, the ΔTm at 50 µM is more than 2.5 °C.

As to `O=c1c(CN(CCCn2ccnc2)Cc2ccncc2)coc2cc(Br)c(F)cc12` [Example 37, 7-bromo-6-fluoro-3-({[3-(1H-imidazol-1-yl)propyl][(pyridin-4-yl)methyl]amino}methyl)-4H-chromen-4-one], the EC50 in assay [1] and in assay [2] was not above 10 µM throughout. Besides, the ΔTm at 50 µM on human STING is more than 2.5 °C.

For the compound `COc1ccc(-c2ccc3c(=O)c(CN(CCCn4ccnc4)Cc4ccncc4)coc3c2)cc1OC` [Example 38, 7-(3,4-dimethoxyphenyl)-3-({[3-(1H-imidazol-1-yl)propyl][(pyridin-4-yl)methyl]amino}methyl)-4H-chromen-4-one], the EC50 in assay [1] and in assay [2] was not below 20 µM in each case. Further, the ΔTm at 50 µM at human STING is less than 2.5 °C.

Turning to `COc1ccccc1-c1ccc2c(=O)c(CN(CCCn3ccnc3)Cc3ccncc3)coc2c1` [Example 39, 3-({[3-(1H-imidazol-1-yl)propyl][(pyridin-4-yl)methyl]amino}methyl)-7-(2-methoxyphenyl)-4H-chromen-4-one], the EC50 in assay [1] is not above 10 µM; in assay [2], 10 to 20 µM. Further, the ΔTm at 50 µM on human STING was more than 2.5 °C.

As to `COc1cccc(-c2ccc3c(=O)c(CN(CCCn4ccnc4)Cc4ccncc4)coc3c2)c1` [Example 40, 3-({[3-(1H-imidazol-1-yl)propyl][(pyridin-4-yl)methyl]amino}methyl)-7-(3-methoxyphenyl)-4H-chromen-4-one], the EC50 in assay [1] and in assay [2] was not above 10 µM in each case. The ΔTm at 50 µM at human STING was more than 2.5 °C.

On to `Cc1oc2ccccc2c(=O)c1CN(CCCc1cccnc1)Cc1ccncc1` [Example 41, 2-methyl-3-({[3-(pyridin-3-yl)propyl][(pyridin-4-yl)methyl]amino}methyl)-4H-chromen-4-one], for which the EC50 in assay [1] and in assay [2] was 10 to 20 µM throughout. Also, at human STING, the ΔTm at 50 µM was more than 2.5 °C.

`COc1ccc(-c2cc3occ(CN(CCCn4ccnc4)Cc4ccncc4)c(=O)c3cc2F)cc1` [Example 42, 6-fluoro-3-({[3-(1H-imidazol-1-yl)propyl][(pyridin-4-yl)methyl]amino}methyl)-7-(4-methoxyphenyl)-4H-chromen-4-one]: the concentration giving a half-maximal response (EC50) in assay [1] and in assay [2] was not above 10 µM throughout. For the same compound, the ΔTm at 50 µM at human STING is more than 2.5 °C.

`CCn1cc(CN(CCCn2ccnc2)Cc2ccncc2)c(=O)c2ccccc21` [Example 43, 1-ethyl-3-({[3-(1H-imidazol-1-yl)propyl](pyridin-4-ylmethyl)amino}methyl)-1,4-dihydroquinolin-4-one]: the EC50 in assay [1] and in assay [2] was not below 20 µM each time. Further, the ΔTm at 50 µM on human STING was less than 2.5 °C.

`COc1cc(CN(CCCn2ccnc2)Cc2cn(C)c3ccccc3c2=O)ccn1` [Example 44, 3-({[3-(1H-imidazol-1-yl)propyl][(2-methoxypyridin-4-yl)methyl]amino}methyl)-1-methyl-1,4-dihydroquinolin-4-one]: the values for the EC50 in assay [1] and in assay [2] were 10 to 20 µM and not below 20 µM, respectively. Also, the ΔTm at 50 µM on human STING is less than 2.5 °C.

`O=c1c(CN(CCCn2ccnc2)Cc2ccncc2)coc2c(F)cc(F)cc12` [Example 45, 6,8-difluoro-3-({[3-(1H-imidazol-1-yl)propyl][(pyridin-4-yl)methyl]amino}methyl)-4H chromen-4-one]: the EC50 in assay [1] is 10 to 20 µM; in assay [2], not below 20 µM. Besides, at human STING, the ΔTm at 50 µM is less than 2.5 °C.
